Patent publication US20210403435A1, “HERBICIDAL COMPOUNDS” (SYNGENTA CROP PROTECTION AG, priority 2018, published 2021)

Legend:
Assay in all cases: Post-emergence efficacy, glasshouse, evaluated after 13 days
Type in all cases: in vivo
[1] = tested on: Euphorbia heterophylla (EPHHL); settings: post-emergence application, 500 g/Ha, evaluated after 13 days; for pest or weed control at 500 g/ha: Euphorbia heterophylla, 312 h, read-out: Control of weed species EPHHL (100=total damage to plant; 0=no damage to plant)
In short: (§1)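 Glasshouse post-emergence test: 14-day plants sprayed, then maintained at 24/16 °C day/night, 14 h photoperiod, 65% humidity. Evaluation at day 13 uses a percentage damage scale (100 = plant fully damaged).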

[2] = tested on: Echinochloa crus-galli (ECHCG); settings: post-emergence application, 500 g/Ha, evaluated after 13 days; for pest or weed control at 500 g/ha: Echinochloa crus-galli, 312 h, read-out: Control of weed species ECHCG (100=total damage to plant; 0=no damage to plant)
In short: as §1

Setaria faberi (SETFA) = settings: post-emergence application, 500 g/Ha, evaluated after 13 days; for pest or weed control at 500 g/ha: Setaria faberi, 312 h, read-out: Control of weed species SETFA (100=total damage to plant; 0=no damage to plant)
In short: as §1

[3] = tested on: Ipomoea hederacea (IPOHE); settings: post-emergence application, 500 g/Ha, evaluated after 13 days; for pest or weed control at 500 g/ha: Ipomoea hederacea, 312 h, read-out: Control of weed species IPOHE (100=total damage to plant; 0=no damage to plant)
In short: as §1

Eleusine indica (ELEIN) = settings: post-emergence application, 500 g/Ha, evaluated after 13 days; for pest or weed control at 500 g/ha: Eleusine indica, 312 h, read-out: Control of weed species ELEIN (100=total damage to plant; 0=no damage to plant)
In short: as §1

[4] = tested on: Digitaria sanguinalis (DIGSA); settings: post-emergence application, 500 g/Ha, evaluated after 13 days; for pest or weed control at 500 g/ha: Digitaria sanguinalis, 312 h, read-out: Control of weed species DIGSA (100=total damage to plant; 0=no damage to plant)
In short: as §1

[5] = tested on: Chenopodium album (CHEAL); settings: post-emergence application, 500 g/Ha, evaluated after 13 days; for pest or weed control at 500 g/ha: Chenopodium album, 312 h, read-out: Control of weed species CHEAL (100=total damage to plant; 0=no damage to plant)
In short: as §1

[6] = tested on: Amaranthus palmeri (AMAPA); settings: post-emergence application, 500 g/Ha, evaluated after 13 days; for pest or weed control at 500 g/ha: Amaranthus palmeri, 312 h, read-out: Control of weed species AMAPA (100=total damage to plant; 0=no damage to plant)
In short: as §1

Lolium perenne (LOLPE) = settings: post-emergence application, 500 g/Ha, evaluated after 13 days; for pest or weed control at 500 g/ha: Lolium perenne, 312 h, read-out: Control of weed species LOLPE (100=total damage to plant; 0=no damage to plant)
In short: as §1

SMILES	pest or weed control at 500 g/ha [1] [%]	pest or weed control at 500 g/ha [2] [%]	pest or weed control at 500 g/ha (Setaria faberi (SETFA)) [%]	pest or weed control at 500 g/ha [3] [%]	pest or weed control at 500 g/ha (Eleusine indica (ELEIN)) [%]	pest or weed control at 500 g/ha [4] [%]	pest or weed control at 500 g/ha [5] [%]	pest or weed control at 500 g/ha [6] [%]	pest or weed control at 500 g/ha (Lolium perenne (LOLPE)) [%]	Control of weed species EPHHL (100=total damage to plant; 0=no damage to plant) [1]	Control of weed species ECHCG (100=total damage to plant; 0=no damage to plant) [2]	Control of weed species SETFA (100=total damage to plant; 0=no damage to plant) (Setaria faberi (SETFA))	Control of weed species IPOHE (100=total damage to plant; 0=no damage to plant) [3]	Control of weed species ELEIN (100=total damage to plant; 0=no damage to plant) (Eleusine indica (ELEIN))	Control of weed species DIGSA (100=total damage to plant; 0=no damage to plant) [4]	Control of weed species CHEAL (100=total damage to plant; 0=no damage to plant) [5]	Control of weed species AMAPA (100=total damage to plant; 0=no damage to plant) [6]	Control of weed species LOLPE (100=total damage to plant; 0=no damage to plant) (Lolium perenne (LOLPE))
O=C(O)CC[n+]1ccc(C(=O)NCC(F)(F)F)cn1 [Compound A47]	100	100	90	90	20	100	90	100	30	–	–	–	–	–	–	–	–	–
CCCCNC(=O)c1cc[n+](CCS(=O)(=O)[O-])nc1 [Compound A50]	40	40	60	60	10	60	70	60	20	–	–	–	–	–	–	–	–	–
CCCNC(=O)c1cc[n+](CCS(=O)(=O)[O-])nc1 [Compound A51]	60	60	60	60	20	90	70	50	20	–	–	–	–	–	–	–	–	–
COCCNC(=O)c1cc[n+](CCS(=O)(=O)[O-])nc1 [Compound A52]	60	80	80	60	20	90	100	100	30	–	–	–	–	–	–	–	–	–
CNC(=O)c1cn[n+](CCC(=O)O)cc1C [Compound A53]	60	70	90	50	40	80	70	90	20	–	–	–	–	–	–	–	–	–
O=C(O)CC[n+]1ccc(C(=O)NC2CCCCC2)cn1 [Compound A59]	10	20	30	20	20	60	50	70	20	–	–	–	–	–	–	–	–	–
CCNC(=O)c1cc[n+](CC(C)C(=O)O)nc1 (stereo not drawn) [Compound A60]	90	60	100	70	100	100	20	100	100	–	–	–	–	–	–	–	–	–
CCNC(=O)c1cc[n+](C(C)CC(=O)O)nc1 (stereo not drawn) [Compound A61]	80	50	50	70	90	100	90	100	80	–	–	–	–	–	–	–	–	–
CC(CC(=O)O)[n+]1ccc(C(=O)NC2(C#N)CC2)cn1 (stereo not drawn) [Compound A62]	100	80	70	30	90	70	90	100	70	–	–	–	–	–	–	–	–	–
CN(C)C(=O)c1cn[n+](CCS(=O)(=O)O)cc1-c1ccccc1 [Compound A64]	40	50	30	30	40	40	30	100	20	–	–	–	–	–	–	–	–	–
O=C(O)CC[n+]1ccc(C(=O)NCC2CC2)cn1 [Compound A65]	100	50	100	20	90	100	90	90	50	–	–	–	–	–	–	–	–	–
O=C(O)CC[n+]1ccc(C(=O)NC2CSC2)cn1 [Compound A69]	70	100	100	40	30	100	60	90	40	–	–	–	–	–	–	–	–	–
CCNC(=O)c1cc[n+](C(C)(C)CC(=O)O)nc1 [Compound A71]	20	30	30	60	30	60	70	100	30	–	–	–	–	–	–	–	–	–
CN(NC(=O)c1cc[n+](CCC(=O)O)nc1)C(=O)OC(C)(C)C.O=C([O-])C(F)(F)F [Compound A72]	–	–	–	–	–	–	–	–	–	20	20	20	20	30	40	20	100	20
CCNC(=O)c1cc[n+](CCNS(=O)(=O)C(F)(F)F)nc1 [Compound A73]	90	80	60	80	90	90	90	100	60	–	–	–	–	–	–	–	–	–
CCNC(=O)c1cc[n+](CCCC(=O)O)nc1 [Compound A74]	60	60	70	40	80	80	90	100	80	–	–	–	–	–	–	–	–	–
CCNC(=O)c1cc[n+](CCCS(=O)(=O)[O-])nc1 [Compound A76]	100	30	30	30	60	70	70	40	70	–	–	–	–	–	–	–	–	–
CCNC(=O)c1cc[n+](CCOS(=O)(=O)[O-])nc1 [Compound A80]	90	90	80	70	90	90	100	100	70	–	–	–	–	–	–	–	–	–
CCNC(=O)c1cc[n+](CCNS(=O)(=O)[O-])nc1 [Compound A81]	100	100	100	90	100	90	100	100	90	–	–	–	–	–	–	–	–	–
